The values below are quoted from earlier work in patent publication US7605257B2, “Processes for preparing water-soluble polyethylene glycol conjugates of macrolide immunosuppressants” (Wyeth, priority 2006, dated 2009).

The term IC50 denotes the concentration at which inhibition is half-maximal.

The data set relates to various solid tumors. Particulars: typical IC50, inhibitor of tumor growth; read-out: IC50 against various solid tumors.

Structures are written as SMILES.

For the compound `CO[C@H]1C[C@@H]2CC[C@@H](C)[C@@](O)(O2)C(=O)C(=O)N2CCCC[C@H]2C(=O)O[C@H]([C@H](C)C[C@@H]2CC[C@@H](O)[C@H](OC)C2)CC(=O)[C@H](C)/C=C(\C)[C@@H](O)[C@@H](OC)C(=O)[C@H](C)C[C@H](C)/C=C/C=C/C=C/1C` [Rapamycin, rapamycin], the IC50 is below 50 nM.
